Measurements from ChEMBL document CHEMBL3882387, “Combination of selected analgesics and COX-II inhibitors” (2005).

How the values were obtained:
Type in all cases: functional
Rattus norvegicus [1] = experiment: (§1) Analgesic activity in rat assessed as reduction in baking yeast suspension-induced hind paw oedema by measuring combination effect at 46.4 mg/kg, po co-administered with 215 mg/kg COX2 inhibitor celecoxib (celebrex) 1 hr prior to compound addition by Randall-selitto test relative to control; design: scale not given: the % may be the effect or the level left
Rattus norvegicus [2] = experiment: Analgesic activity in rat assessed as reduction in baking yeast suspension-induced hind paw oedema by measuring combination effect at 21.5 mg/kg, po co-administered with 215 mg/kg COX2 inhibitor celecoxib (celebrex) 1 hr prior to compound addition by Randall-selitto test relative to control; design: scale not given: the % may be the effect or the level left
Rattus norvegicus [3] = experiment: as §1, with “68.1” for “46.4”, “coadministered” for “co-administered”, “addition measured after 15 to 75 mins” for “addition”; design: scale not given: the % may be the effect or the level left
Rattus norvegicus [4] = experiment: as §1, with “68.1” for “46.4”, “coadministered” for “co-administered”, “addition measured after 75 to 90 mins” for “addition”; design: scale not given: the % may be the effect or the level left
Rattus norvegicus [5] = experiment: Analgesic activity in rat assessed as reduction in baking yeast suspension-induced hind paw oedema at 215 mg/kg, po pretreated for 1 hr followed by 31 mg/kg (1R,2R)-3-(3-dimethylamino-l-ethyl-2-methyl-propyl)-phenol; hydrochloride addition by Randall-selitto test relative to control; design: scale not given: the % may be the effect or the level left
Rattus norvegicus [6] = experiment: Analgesic activity in rat assessed as reduction in baking yeast suspension-induced hind paw oedema at 215 mg/kg, po pretreated for 1 hr followed by 46 mg/kg (1R,2R)-3-(3-dimethylamino-l-ethyl-2-methyl-propyl)-phenol; hydrochloride addition by Randall-selitto test relative to control; design: scale not given: the % may be the effect or the level left
Rattus norvegicus [7] = experiment: (§2) Analgesic activity in rat assessed as reduction in baking yeast suspension-induced hind paw oedema at 215 mg/kg, po pretreated for 1 hr followed by 68.1 mg/kg (1RS,3RS,6RS)-6-dimethylaminomethyl-1-(3-[methoxy-phenyl)-cyclohexane-1,3-diol;hydrochloride addition measured after 15 to 75 mins by Randall-selitto test relative to control; design: scale not given: the % may be the effect or the level left
Rattus norvegicus [8] = experiment: Analgesic activity in rat assessed as reduction in baking yeast suspension-induced hind paw oedema at 215 mg/kg, po pretreated for 1 hr followed by 46.4 mg/kg ((1R,2R)-3-(2-dimethylaminomethyl-cyclohexyl)-phenol;1 hydrochloride addition by Randall-selitto test relative to control; design: scale not given: the % may be the effect or the level left
Rattus norvegicus [9] = experiment: Analgesic activity in rat assessed as reduction in baking yeast suspension-induced hind paw oedema at 215 mg/kg, po pretreated for 1 hr followed by 21.5 mg/kg (1S,2S)-3-(3-dimethylamino-l-ethyl-2-methyl-propyl)-phenol;hydrochloride addition by Randall-selitto test relative to control; design: scale not given: the % may be the effect or the level left
Rattus norvegicus [10] = experiment: as §2, with “after 75” for “after 15”, “to 90” for “to 75”; design: scale not given: the % may be the effect or the level left
Rattus norvegicus [11] = experiment: Analgesic activity in rat assessed as reduction in baking yeast suspension-induced hind paw oedema at 215 mg/kg, po co-administered with 31 mg/kg (1R,2R)-3-(3-dimethylamino-l-ethyl-2-methyl-propyl)-phenol; hydrochloride by Randall-selitto test relative to control; design: scale not given: the % may be the effect or the level left
Rattus norvegicus [12] = experiment: Analgesic activity in po dosed rat assessed as reduction in acetic acid-induced writhings by measuring combination ED50 co-administered with COX2 inhibitor rofecoxib pretreated for 30 mins followed by acetic acid challenge measured after 10 to 35 mins by writhing test
Rattus norvegicus [13] = experiment: Analgesic activity in po dosed formalin-induced chronic pain rat model assessed as reduction in behavioural change by measuring combination ED50 co-administered with COX2 inhibitor celecoxib measured up to 60 mins by formalin test; settings: 1 h
Rattus norvegicus [14] = experiment: Analgesic activity in rat assessed as reduction in baking yeast suspension-induced hind paw oedema at 31 mg/kg, po by measuring combination effect co-administered with 215 mg/kg COX2 inhibitor rofecoxib (vioxx) by Randall-selitto test relative to control; design: scale not given: the % may be the effect or the level left
Rattus norvegicus [15] = experiment: Analgesic activity in rat assessed as reduction in baking yeast suspension-induced hind paw oedema by measuring combination effect at 31 mg/kg, po coadministered with 215 mg/kg COX2 inhibitor rofecoxib (vioxx) 1 hr prior to compound addition by Randall-selitto test relative to control; design: scale not given: the % may be the effect or the level left
Rattus norvegicus [16] = experiment: Analgesic activity in rat assessed as reduction in baking yeast suspension-induced hind paw oedema by measuring combination effect at 46 mg/kg, po coadministered with 215 mg/kg COX2 inhibitor rofecoxib (vioxx) 1 hr prior to compound addition by Randall-selitto test relative to control; design: scale not given: the % may be the effect or the level left
Rattus norvegicus [17] = experiment: Analgesic activity in rat assessed as reduction in baking yeast suspension-induced hind paw oedema by measuring combination effect at 31 mg/kg, po co-administered with 215 mg/kg COX2 inhibitor celecoxib (celebrex) by Randall-selitto test relative to control; design: scale not given: the % may be the effect or the level left
Rattus norvegicus [18] = experiment: Analgesic activity in rat assessed as reduction in baking yeast suspension-induced hind paw oedema by measuring combination effect at 46 mg/kg, po co-administered with 215 mg/kg COX2 inhibitor celecoxib (celebrex) by Randall-selitto test relative to control; design: scale not given: the % may be the effect or the level left
Rattus norvegicus [19] = experiment: Analgesic activity in rat assessed as reduction in baking yeast suspension-induced hind paw oedema at 31 mg/kg, po by measuring combination effect co-administered with 215 mg/kg COX2 inhibitor celecoxib by Randall-selitto test relative to control; design: scale not given: the % may be the effect or the level left

## CN(C)C[C@@H]1CCCC[C@H]1c1cccc(O)c1.Cl
Rattus norvegicus [1]
  Activity: 84.1%

## CC[C@H](c1cccc(O)c1)[C@H](C)CN(C)C.Cl
Rattus norvegicus [2]
  Activity: 96.4%

## COc1cccc([C@@]2(O)C[C@H](O)CC[C@@H]2CN(C)C)c1.Cl (racemic)
Rattus norvegicus [3]
  Activity: 109.3%
Rattus norvegicus [4]
  Activity: 68.5%

## Cc1ccc(-c2cc(C(F)(F)F)nn2-c2ccc(S(N)(=O)=O)cc2)cc1 [CELECOXIB]
Rattus norvegicus [5]
  Activity: 17.3%
Rattus norvegicus [6]
  Activity: 17.3%
Rattus norvegicus [7]
  Activity: 16.7%
Rattus norvegicus [8]
  Activity: 8.9%
Rattus norvegicus [9]
  Activity: 8.9%
Rattus norvegicus [10]
  Activity: 8%

## CS(=O)(=O)c1ccc(C2=C(c3ccccc3)C(=O)OC2)cc1 [ROFECOXIB]
Rattus norvegicus [11]
  Activity: 11.2%
Rattus norvegicus [5]
  Activity: 13%
Rattus norvegicus [6]
  Activity: 13%

## CC[C@@H](c1cccc(O)c1)[C@@H](C)CN(C)C.Cl [TAPENTADOL HYDROCHLORIDE]
Rattus norvegicus [12]
  ED50: 23.3 mg/kg
Rattus norvegicus [13]
  ED50: 60.6 mg/kg
Rattus norvegicus [14]
  Activity: 29.7%
Rattus norvegicus [15]
  Activity: 45.7%
Rattus norvegicus [16]
  Activity: 59.8%
Rattus norvegicus [17]
  Activity: 60.9%
Rattus norvegicus [18]
  Activity: 86.1%
Rattus norvegicus [19]
  Activity: 29.6%
